Some results are limits rather than exact numbers.

T1 sequence (Q9UIV1 whole entry): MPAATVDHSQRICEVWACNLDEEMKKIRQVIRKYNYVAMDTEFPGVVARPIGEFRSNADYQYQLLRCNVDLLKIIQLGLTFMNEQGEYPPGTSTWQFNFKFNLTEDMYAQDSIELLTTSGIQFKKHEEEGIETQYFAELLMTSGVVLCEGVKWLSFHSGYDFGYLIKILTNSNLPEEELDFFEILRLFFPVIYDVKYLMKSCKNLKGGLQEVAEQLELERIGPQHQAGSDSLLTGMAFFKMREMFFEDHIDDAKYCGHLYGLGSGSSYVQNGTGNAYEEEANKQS

For one assay, the system named is Caf1/CNOT7.
Experiment: not given
As to conditions: cited from earlier work. Also on record: method as in PMID 24170810.
Take `COc1cc(Cl)c(C)cc1-n1cc(C(=O)c2cc(Br)ccc2O)cc(C#N)c1=O` [Compound 1, 5-(5-bromo-2-hydroxybenzoyl)-1-(4-chloro-2-methoxy-5-methylphenyl)-2-oxo-1,2-dihydropyridine-3-carbonitrile]: the “activity in gel-based assay” value is “confirmed” and the selectivity result was “selective to Caf1/CNOT7”.

Another assay has as its target T1, human nuclease enzyme Caf1/CNOT7 (Homo sapiens, UniProt Q9UIV1). Kind of assay: fluorescence-based nuclease activity assay. The conditions noted are these: mean ± standard error; 0.4 µM Caf1/CNOT7, 1 µM Flc-RNA substrate, 30 °C, 60 min; read-out: IC50 versus Caf1/CNOT7. Type of assay: biochemical. The procedure:
Purity of the compounds was verified by LC-MS. The inhibitory activity of the compounds was assessed using a fluorescence-based activity assay described before. Briefly, purified Caf1/CNOT7 was pre-incubated in the presence of compound or vehicle only (DMSO) before addition of a Fluorescein-labelled RNA oligonucleotide substrate. The composition of the final reaction mixture (10 µL) was: 0.4 µM Caf1/CNOT7, 1 µM Flc-RNA substrate, 20 mM Tris–HCl pH 7.9, 50 mM NaCl, 2 mM MgCl2, 10% glycerol, 1 mM β-mercaptoethanol and 5% DMSO. After incubation at 30 °C for 60 min, 10 µL probe mix (5 µM TAMRA-DNA probe, 1% SDS and 20 mM Tris–HCl pH 8.0, 0.5 mM EDTA) was added. Fluorescence intensity was measured using a BioTek Synergy HT plate reader (Agilent, Cheshire, UK) using the filters 485 ± 20 nm (excitation) and 528 ± 20 nm (emission). Raw data were analysed in Microsoft Excel and non-linear regression was carried out using GraphPad Prism 6. Statistical analysis (one-way ANOVA with post-hoc Dunnett’s test) was also carried out using GraphPad Prism.
Turning to `COc1cc(Cl)c(C)cc1-n1cc(C(=O)c2cc(Br)ccc2O)cc(C#N)c1=O` [Compound 1, 5-(5-bromo-2-hydroxybenzoyl)-1-(4-chloro-2-methoxy-5-methylphenyl)-2-oxo-1,2-dihydropyridine-3-carbonitrile], the IC50 amounted to 24.1 ± 3.3 µM.
On the same count and under the same terms, the value for `N#Cc1cc(C(=O)c2cc(Br)ccc2O)cn(-c2ccccc2Cl)c1=O` [Compound 3] was 65.6 ± 3.3 µM.
`N#Cc1cc(C(=O)c2cc(Br)ccc2O)cn(-c2ccccc2Oc2ccccc2)c1=O` [Compound 4]: the IC50 was 39.3 ± 1.6 µM.
In the case of `COc1ccc(-n2cc(C(=O)c3cc(Br)ccc3O)cc(C#N)c2=O)cc1` [Compound 5], the IC50 amounted to 81.1 ± 5 µM.
With `COc1ccccc1-n1cc(C(=O)c2cc(Br)ccc2O)cc(C#N)c1=O` [Compound 6], the IC50 was 80.9 ± 9.2 µM.
As for `CCc1ccc(-n2cc(C(=O)c3cc(Br)ccc3O)cc(C#N)c2=O)cc1` [Compound 7], the IC50 was determined as 39 ± 2.6 µM.
On the same count and under the same terms, with `N#Cc1cc(C(=O)c2cc(Br)ccc2O)cn(-c2ccc(Cl)cc2)c1=O` [Compound 8] the figure was 32.2 ± 1.6 µM.
On the same count and under the same terms, the value for `CCOC(=O)c1ccc(-n2cc(C(=O)c3cc(Br)ccc3O)cc(C#N)c2=O)cc1` [Compound 9] was 33.2 ± 0.5 µM.
Consider `N#Cc1cc(C(=O)c2cc(Br)ccc2O)cn(-c2cccc(C(F)(F)F)c2)c1=O` [Compound 10], for which the IC50 turned out to be 42.1 ± 1.4 µM.
On the same count and under the same terms, the value for `COc1cc(Cl)c(C)cc1-n1cc(C(=O)c2cc(F)ccc2O)cc(C#N)c1=O` [Compound 11] was 33.6 ± 1.1 µM.
On the same count and under the same terms, with `N#Cc1cc(C(=O)c2cc(Br)ccc2O)cn(-c2ccccc2)c1=O` [Compound 12] the figure was 108 ± 4 µM; with `N#Cc1cc(C(=O)c2cc(Br)ccc2O)cn(-c2ccc(F)c(Cl)c2)c1=O` [Compound 13], 47 ± 2.7 µM.
The same measure, in the same setting: the value for `Cc1ccc(-n2cc(C(=O)c3cc(Br)ccc3O)cc(C#N)c2=O)cc1` [Compound 14] was 57.5 ± 4.7 µM; that for `Cc1cccc(-n2cc(C(=O)c3cc(Br)ccc3O)cc(C#N)c2=O)c1` [Compound 15] was 31.8 ± 1.8 µM; that for `Cc1ccccc1-n1cc(C(=O)c2cc(Br)ccc2O)cc(C#N)c1=O` [Compound 16] was 44.5 ± 3.6 µM.
With `N#Cc1cc(C(=O)c2cc(Br)ccc2O)cn(-c2cc(Cl)cc(Cl)c2)c1=O` [Compound 17], the IC50 was found to be 19.2 ± 1.1 µM.

Staying with this assay, now noted: ratio of IC50 values versus compound 1.
Consider `COc1cc(Cl)c(C)cc1-n1cc(C(=O)c2cc(F)ccc2O)cc(C#N)c1=O` [Compound 11], for which the “fold lower potency compared to 1” value is under 2 fold.
On the same count and under the same terms, with `N#Cc1cc(C(=O)c2cc(Br)ccc2O)cn(-c2ccccc2)c1=O` [Compound 12] the figure was 4–5 fold.

The target in another assay is T1, human nuclease enzyme Caf1/CNOT7.
Experiment: not given
Further details: method as in PMID 24170810. The conditions noted are these: n = 3; read-out: originally reported IC50 versus Caf1/CNOT7; cited from earlier work.
With `COc1cc(Cl)c(C)cc1-n1cc(C(=O)c2cc(Br)ccc2O)cc(C#N)c1=O`, the IC50 is 14.6 ± 3.1 µM.
